Measurements taken from US8710089B2, “Triazole derivatives as ghrelin analogue ligands of growth hormone secretagogue receptors” (Zentaris GmbH, priority 2005, dated 2014).

Each molecule was assayed against T1, human GHS-R 1a (Homo sapiens, UniProt Q92847) (assay: GHS-R 1a receptor-ligand binding assay (membrane preparations from transfected LLC PK-1 cells)). Details: displacement of 125I-His9-ghrelin (60 pM); membranes of LLC PK-1 cells transfected with human GHS-R 1a; mean of at least two independent experiments in triplicates.
T1 construct: expressed in transfected cells; host or cells: LLC PK-1 porcine renal epithelial cells (ECACC No. 86121112), isolated plasma membranes
Experimental: (J. Med. […] Med. Chem. 2003, 46: 1191-1203), were incubated in homogenization buffer HB [50 mM Tris (pH 7.3), 5 mM MgCl2, 2.5 mM EDTA, and 30 μg/mL bacitracin (Sigma)] for 60 min at 25° C. (steady-state conditions) with 60 pM ^125I-[…]-ghrelin (Amersham) in the presence or absence of competing compounds (compounds of the invention). […] Nonspecific binding was defined using an excess (10^-6 M) of ghrelin. The binding reaction was stopped by addition of 4 mL of ice-cold HB followed by rapid filtration over Whatman GP/C filters presoaked with 0.5% polyethyleneimine to prevent excessive binding of radioligand to the filters. […] IC50 values given are the mean of at least two independent experiments performed in triplicates.

T1 sequence (Q92847 whole entry): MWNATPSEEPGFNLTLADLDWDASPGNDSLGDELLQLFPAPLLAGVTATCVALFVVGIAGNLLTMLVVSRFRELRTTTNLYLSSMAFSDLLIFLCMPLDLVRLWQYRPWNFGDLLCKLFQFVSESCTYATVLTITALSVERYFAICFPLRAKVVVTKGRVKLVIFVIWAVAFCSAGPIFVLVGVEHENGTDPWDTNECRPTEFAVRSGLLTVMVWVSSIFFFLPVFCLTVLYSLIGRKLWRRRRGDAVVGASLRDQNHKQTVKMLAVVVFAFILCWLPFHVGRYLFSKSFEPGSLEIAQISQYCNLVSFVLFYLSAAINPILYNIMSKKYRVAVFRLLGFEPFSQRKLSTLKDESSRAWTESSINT

Structure (SMILES)	IC50
COc1ccc(Cn2c(CCc3ccccc3)nnc2[C@@H](Cc2c[nH]c3ccccc23)NC(=O)C2CCCCC2)cc1 [compound 53, (R)—N-(1-(4-(4-methoxybenzyl)-5-phenethyl-4H-1,2,4-triazol-3-yl)-2-(1H-indol-3-yl)ethyl)cyclohexanecarboxamide]	0.018 µM
COc1cccc(Cn2c(CCc3ccccc3)nnc2[C@@H](Cc2c[nH]c3ccccc23)NC(=O)C(C)(C)N)c1 [compound 19, (R)—N-(1-(4-(3-methoxybenzyl)-5-phenethyl-4H-1,2,4-triazol-3-yl)-2-(1H-indol-3-yl)ethyl)-2-amino-2-methylpropanamide]	0.078 µM
CC(C)(N)C(=O)N[C@H](Cc1c[nH]c2ccccc12)c1nnc(CCc2c[nH]c3ccccc23)n1CCc1ccccc1 [compound 2, (R)—N-(1-(5-(2-(1H-indol-3-yl)ethyl)-4-phenethyl-4H-1,2,4-triazol-3-yl)-2-(1H-indol-3-yl)ethyl)-2-amino-2-methylpropanamide]	0.081 µM
COc1ccc(Cn2c(CCc3c[nH]c4ccccc34)nnc2[C@H](Cc2c[nH]c3ccccc23)NC(=O)C(C)(C)N)c(OC)c1 [compound 18, (S)—N-(1-(5-(2-(1H-indol-3-yl)ethyl)-4-(2,4-dimethoxybenzyl)-4H-1,2,4-triazol-3-yl)-2-(1H-indol-3-yl)ethyl)-2-amino-2-methylpropanamide]	0.083 µM
COc1ccc(Cn2c(CCc3ccccc3)nnc2[C@@H](Cc2c[nH]c3ccccc23)NC(=O)CCc2cccnc2)cc1 [compound 59, (R)—N-(1-(4-(4-methoxybenzyl)-5-phenethyl-4H-1,2,4-triazol-3-yl)-2-(1H-indol-3-yl)ethyl)-3-(pyridin-3-yl)propanamide]	0.173 µM
COc1ccc(Cn2c(CCc3ccccc3)nnc2[C@@H](Cc2c[nH]c3ccccc23)NC(=O)Cc2cccnc2)cc1 [compound 58, (R)—N-(1-(4-(4-methoxybenzyl)-5-phenethyl-4H-1,2,4-triazol-3-yl)-2-(1H-indol-3-yl)ethyl)-2-(pyridin-3-yl)acetamide]	0.029 µM
COC(=O)CCn1nnnc1[C@@H](Cc1c[nH]c2ccccc12)NC(=O)C(C)(C)N [Example 3 from WO 00/54729 A2, (R)—N-(1-(1-methylpropanoate-tetrazol-5-yl)-2-(1H-indol-3-yl)ethyl)-2-amino-2-methylpropanamide, reference compound]	~3 µM
CC(C)(N)C(=O)N[C@H](Cc1c[nH]c2ccccc12)c1nnc(CCCc2c[nH]c3ccccc23)n1Cc1ccc(Br)cc1 [compound 14, (R)—N-(1-(5-(3-(1H-indol-3-yl)propyl)-4-(4-bromobenzyl)-4H-1,2,4-triazol-3-yl)-2-(1H-indol-3-yl)ethyl)-2-amino-2-methylpropanamide]	0.15 µM
COc1ccc(Cn2c(CCc3ccccc3)nnc2[C@@H](Cc2c[nH]c3ccccc23)NC(=O)[C@H]2CCCCN2)c(OC)c1 [compound 63, (R)—N—((R)-1-(4-(2,4-dimethoxybenzyl)-5-phenethyl-4H-1,2,4-triazol-3-yl)-2-(1H-indol-3-yl)ethyl)piperidine-2-carboxamide]	0.21 µM
COc1ccc(Cn2c(CCc3ccccc3)nnc2[C@@H](Cc2c[nH]c3ccccc23)NC(=O)c2cnccn2)c(OC)c1 [compound 66, (R)—N-(1-(4-(2,4-dimethoxybenzyl)-5-phenethyl-4H-1,2,4-triazol-3-yl)-2-(1H-indol-3-yl)ethyl)pyrazine-2-carboxamide]	0.008 µM
COc1ccc(Cn2c(CCc3ccccc3)nnc2[C@@H](Cc2c[nH]c3ccccc23)NC(=O)C2CNCCN2)c(OC)c1 (stereo partly shown) [compound 67]	0.035 µM
CCc1ccc(Cn2c(CCc3ccccc3)nnc2[C@@H](Cc2c[nH]c3ccccc23)NC(=O)C(C)(C)N)cc1 [compound 43, (R)—N-(1-(4-(4-ethylbenzyl)-5-phenethyl-4H-1,2,4-triazol-3-yl)-2-(1H-indol-3-yl)ethyl)-2-amino-2-methylpropanamide]	0.044 µM
CC(C)(C)Sc1nnc([C@@H](Cc2c[nH]c3ccccc23)NC(=O)C(C)(C)N)n1Cc1ccco1 [Example 39 from WO 00/54729 A2, (R)—N-(1-(5-(tert-butylthio)-4-(furan-2-ylmethyl)-4H-1,2,4-triazol-3-yl)-2-(1H-indol-3-yl)ethyl)-2-amino-2-methylpropanamide, reference compound]	~5 µM
Cc1ccc(Cn2c(CCCc3ccccc3)nnc2[C@@H](Cc2c[nH]c3ccccc23)NC(=O)C(C)(C)N)cc1 [compound 33, (R)—N-(1-(4-(4-methylbenzyl)-5-(3-phenylpropyl)-4H-1,2,4-triazol-3-yl)-2-(1H-indol-3-yl)ethyl)-2-amino-2-methylpropanamide]	0.03 µM
CC(C)(N)C(=O)N[C@H](Cc1c[nH]c2ccccc12)c1nnc(CCc2c[nH]c3ccccc23)n1Cc1ccccc1 [compound 8, (R)—N-(1-(5-(2-(1H-indol-3-yl)ethyl)-4-benzyl-4H-1,2,4-triazol-3-yl)-2-(1H-indol-3-yl)ethyl)-2-amino-2-methylpropanamide]	0.018 µM

The remaining lines, values ahead:

IC50	Structure (SMILES)
0.033 µM	COc1ccc(-n2c(CCc3ccccc3)nnc2[C@@H](Cc2c[nH]c3ccccc23)NC(=O)c2ccccn2)c(OC)c1 [compound 159, N—((R)-2-(1H-indol-3-yl)-1-(4-(2,4-dimethoxyphenyl)-5-phenethyl-4H-1,2,4-triazol-3-yl)ethyl)picolinamide]
0.07 µM	O=C(N[C@H](Cc1c[nH]c2ccccc12)c1nnc(CCc2c[nH]c3ccccc23)n1-c1ccccc1)C1CCNCC1 [compound 158, N—((R)-1-(5-(2-(1H-indol-3-yl)ethyl)-4-phenyl-4H-1,2,4-triazol-3-yl)-2-(1H-indol-3-yl)ethyl)piperidine-4-carboxamide]
0.044 µM	CCc1ccc(Cn2c(CCc3ccccc3)nnc2[C@@H](Cc2c[nH]c3ccccc23)NC(=O)c2ccccn2)cc1 [compound 138, N—((R)-1-(4-(4-ethylbenzyl)-5-phenethyl-4H-1,2,4-triazol-3-yl)-2-(1H-indol-3-yl)ethyl)picolinamide]
0.255 µM	O=C(N[C@H](Cc1c[nH]c2ccccc12)c1nnc(CCc2ccccc2)n1Cc1cccs1)C1CCNCC1 [compound 94, (R)—N-(2-(1H-indol-3-yl)-1-(5-phenethyl-4-(thiophen-2-ylmethyl)-4H-1,2,4-triazol-3-yl)ethyl)piperidine-4-carboxamide]
0.019 µM	CCc1ccc(Cn2c(CCc3ccccc3)nnc2[C@@H](Cc2c[nH]c3ccccc23)NC(=O)C2CCNCC2)cc1 [compound 83, (R)—N-(1-(4-(4-ethylbenzyl)-5-phenethyl-4H-1,2,4-triazol-3-yl)-2-(1H-indol-3-yl)ethyl)piperidine-4-carboxamide]
0.121 µM	COc1ccc(-n2c(CCc3ccccc3)nnc2[C@@H](Cc2c[nH]c3ccccc23)NC(=O)Cc2ccccn2)c(OC)c1 [compound 160, N—((R)-2-(1H-indol-3-yl)-1-(4-(2,4-dimethoxyphenyl)-5-phenethyl-4H-1,2,4-triazol-3-yl)ethyl)-2-(pyridin-2-yl)acetamide]
0.081 µM	O=C(N[C@H](Cc1c[nH]c2ccccc12)c1nnc(CCc2ccccc2)n1Cc1ccco1)c1ccccn1 [compound 182, N—((R)-1-(4-((furan-2-yl)methyl)-5-phenethyl-4H-1,2,4-triazol-3-yl)-2-(1H-indol-3-yl)ethyl)picolinamide]
